Laboratory results taken from patent US10654896B2, “FoxP3-binding peptides and uses thereof” (FUNDACIÓN PARA LA INVESTIGACIÓN MÉDICA APLICADA, priority 2016, dated 2020).
Where no end group is shown, it is not given here.

Assays:
human FOXP3 (FOXP3-6His) = biological target: T1, human FOXP3 (FOXP3-6His) (Homo sapiens, UniProt Q9BZS1); test: Peptide binding to FOXP3 by surface plasmon resonance (SPR)
T1 construct: 6xHis (C); made in house; host or cells: E. coli BL21 (DE3)
T1 sequence (Q9BZS1 1-431): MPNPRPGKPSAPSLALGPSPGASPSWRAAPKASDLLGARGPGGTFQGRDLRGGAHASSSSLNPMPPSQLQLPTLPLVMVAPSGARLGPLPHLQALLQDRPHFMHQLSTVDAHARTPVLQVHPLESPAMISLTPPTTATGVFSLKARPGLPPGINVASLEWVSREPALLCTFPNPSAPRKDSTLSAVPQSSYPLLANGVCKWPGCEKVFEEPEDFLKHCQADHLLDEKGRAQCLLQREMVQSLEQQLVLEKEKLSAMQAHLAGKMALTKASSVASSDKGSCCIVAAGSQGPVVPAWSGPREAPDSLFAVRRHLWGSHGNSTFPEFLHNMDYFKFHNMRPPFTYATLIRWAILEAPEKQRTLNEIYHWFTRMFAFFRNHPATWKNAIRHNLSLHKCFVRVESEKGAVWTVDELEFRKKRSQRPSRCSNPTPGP
In short: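 C-terminally 6His-tagged human FOXP3, expressed in E. coli BL21(DE3) and Ni-affinity purified, was amine-coupled to a GLM chip (ProteOn XPR36). Peptides at 1–20 μM injected in triplicate in PBS, 0.005% Tween 20, pH 7.4, at 30 μl/min, with interspot reference. Binding given as ratio to reference peptide p60.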

Hepa-129 cells = test: Tumor rejection experiment, Hepa-129 cells s.c.; format: in vivo, C3H/HeN mice; settings: peptide 50 μg/mice/day, days 10 to 20, combined with anti-PD1 antibodies
Description: For tumor rejection experiments, Hepa-129 cells (10^6 cells/mouse), were injected subcutaneously (sc) in C3H/HeN mice (n=6). Ten days later, when the tumor reached 5 mm in diameter, mice were randomly divided into different experimental groups. A group of mice were treated i.p. with anti-PD1 antibodies (BE0146, BioXcell) (50 μg/mouse). Antibody administration was repeated one week after this first administration. A group of mice treated with anti-PD1 also received the cyclic peptide SEQ ID NO: 50 from days 10 to 20 (50 μg/mice/day). Tumor size, presented as the average of two perpendicular diameters (millimeters), was measured at regular intervals. Mice were sacrificed when the mean tumor diameter was greater than 20 mm. Mice were housed in appropriated animal care facilities during the experimental period and handled following the international guidelines required for experimentation with animals. The experiments were approved by institutional ethical committee.

[1] = Human liver microsomal stability; format: in vitro ADME; settings: human liver microsomes
Description: (§1) The data collected were analyzed to calculate a half-life (t1/2, min) for tested peptides at a final concentration of 1 μM. Briefly, 5 μL of stock solution of tested peptide (10 mM) were diluted in 495 μL of 1:1 Methanol/Water (final concentration of 100 μM, 50% MeOH). Then, 50 μL of this intermediate solution were diluted in 450 μL of 100 mM potassium phosphate buffer to a concentration of 10 μM (working solution, 5% MeOH). The NADPH regenerating system contains β-Nicotinamide adenine dinucleotide phosphate (Sigma, Cat. # N0505), Isocitric acid (Sigma, Cat. #11252) and Isocitric dehydrogenase (Sigma, Cat. #12002) at a final concentration of 1 unit/mL at incubation.
(§2) Human liver microsomes were obtained from BD Gentest (Cat. #452117) and mouse liver microsomes from Xenotech (Cat. # M1000), to a final concentration of 0.7 mg protein/mL. A volume of 10 μL of peptide solution and 80 μL of microsome solution were added to a 96-well plate and incubated for 10 min at 37° C. The reaction was started by the addition of 10 μL of NADPH regenerating system and stopped by the addition of 300 μL of stop solution (ACN at 4° C., including 100 ng/mL Tolbutamide and 100 ng/mL of Labetalol as internal standard) at different incubation times (0, 5, 10, 20, 30 and 60 min). Concentrations of test compound were quantified by LC-MS/MS methodologies (Shimadzu LC 20-AD/API4000) using peak area ratio of analyte/internal standard and the percent loss of parent compound was calculated under each time point to determine the half-life.

[2] = Mouse liver microsomal stability; format: in vitro ADME; settings: mouse liver microsomes
Description: as §1, §2

CT26 tumor cells = test: Anti-tumor vaccination experiment (AH1 in IFA), CT26 challenge; format: in vivo, BALB/c
Description: For anti-tumor vaccination experiments, BALB/c animals immunized with 50 nanomol/mice of peptide AH1 emulsified in incomplete Freund adjuvant (IFA) (Casares et al., 2010, supra), were treated intraperitoneally with 10 nanomol/mice of the indicated Treg inhibitory peptide SEQ ID NO: 51 of the invention or with saline daily during 10 days. At day 10, mice were injected s.c. with 10^6 CT26 tumor cells. Tumor size was monitored twice a week with a calliper and it was expressed according to the formula V=(length×width2)/2. Mice were sacrificed when tumor size reached a volume greater than 4 cm^3.

[3] = 20 min, read-out: % Remaining after 20 min
[4] = 60 min, read-out: % Remaining after 60 min

Row | Sequence | increase in the binding to FoxP3 with respect to p60 (SEQ ID NO: 1) (human FOXP3 (FOXP3-6His)) | antitumor activity (Hepa-129 cells) | remaining at 20 min, 1 μM [1, 3] | remaining at 1 h, 1 μM [1, 4] | half-life ([1]; peptide 1 μM, read-out: t1/2) | remaining at 20 min, 1 μM [2, 3] | remaining at 1 h, 1 μM [2, 4] | half-life ([2]; peptide 1 μM) | effect on growth of CT26 colon cancer tumor (CT26 tumor cells; 10 nanomol/mice i.p. daily during 10 days after AH1/IFA, day 30 after injection of CT26) | tumor volume (CT26 tumor cells; day 30 after injection of CT26 tumor cells)
1 | RAFQAFRKMWPFFAM [SEQ ID NO: 50] (cyclo(RAFQAFRKMWPFFAM); also: R1 and R2 form a linker birradical which is -C(=O)-) [head-to-tail cyclic peptide] | more than 2100% | remarkable antitumor activity |  |  |  |  |  |  |  | 
2 | RDFQSFRKMWPFFAM [SEQ ID NO: 1, RDFQSFRKMWPFFAM, reference compound] |  |  | 0% | 0% | < 2.5 min | 0% | 0% | < 2.5 min | not efficient | about 2000 mm^3
